In this assay the target is T1, hFXR (Homo sapiens, UniProt Q96RI1).
T1 construct: expressed in transfected cells; host or cells: CV-1 cells
T1 sequence (Q96RI1 1-486): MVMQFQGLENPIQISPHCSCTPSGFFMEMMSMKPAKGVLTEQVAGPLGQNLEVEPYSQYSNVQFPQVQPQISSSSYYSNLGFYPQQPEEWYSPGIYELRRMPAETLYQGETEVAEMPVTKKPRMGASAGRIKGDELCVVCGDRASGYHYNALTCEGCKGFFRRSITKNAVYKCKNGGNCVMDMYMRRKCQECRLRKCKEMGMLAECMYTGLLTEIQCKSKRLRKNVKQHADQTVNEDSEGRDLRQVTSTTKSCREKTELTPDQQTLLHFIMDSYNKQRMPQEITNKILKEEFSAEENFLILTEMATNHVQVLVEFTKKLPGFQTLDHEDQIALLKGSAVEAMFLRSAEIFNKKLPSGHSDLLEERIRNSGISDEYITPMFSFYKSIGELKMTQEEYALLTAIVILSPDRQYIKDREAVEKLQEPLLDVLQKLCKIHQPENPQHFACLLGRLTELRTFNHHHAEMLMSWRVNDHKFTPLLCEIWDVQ
T1 sequence (P19793 1-462 partner): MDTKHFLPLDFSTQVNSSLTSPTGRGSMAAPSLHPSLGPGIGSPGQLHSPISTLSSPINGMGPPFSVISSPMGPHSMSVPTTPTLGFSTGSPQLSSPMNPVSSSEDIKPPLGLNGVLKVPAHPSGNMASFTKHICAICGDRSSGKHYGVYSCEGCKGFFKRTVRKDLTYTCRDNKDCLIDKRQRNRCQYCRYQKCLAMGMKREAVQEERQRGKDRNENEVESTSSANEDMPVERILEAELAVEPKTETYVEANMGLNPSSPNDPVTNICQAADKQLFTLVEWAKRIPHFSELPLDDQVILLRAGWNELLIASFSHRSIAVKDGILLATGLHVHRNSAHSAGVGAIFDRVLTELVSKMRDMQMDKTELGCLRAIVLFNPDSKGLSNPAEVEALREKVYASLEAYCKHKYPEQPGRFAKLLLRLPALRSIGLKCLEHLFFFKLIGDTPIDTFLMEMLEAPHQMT
In words: In Vitro FXR Assay (TK): TK-ECRE-luc reporter in transfected CV-1 cells. It is filed as cell-based. The settings on record: 18 hrs, luminescence, maximum efficacy of <25% of the Fexarmine control classified as '+'. The gist of the method: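 Luciferase read-out after 18 h compound exposure of CV-1 cells carrying transfected hFXR plus hRXR expression plasmids, TK-ECRE-luc reporter and pCMX-YFP. Cells cultured in charcoal-stripped FBS before transfection; compounds serially diluted in DMSO.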

A value given as a limit tells only on which side of the number the result lay.

Usually EC50 stands for the concentration giving half of the maximal effect. Read a low EC50 as an effect from little substance. Take `COc1ccc([C@H]2CC[C@H](CN(c3cccc(-c4cnc(C5CC5)s4)c3)C(=O)[C@H]3CC[C@H](NC(=O)CC(C)C)CC3)CC2)cc1C` [Compound 25.18, trans-N-(3-(2-Cyclopropylthiazol-5-yl)phenyl)-N-((trans-4-(4-methoxy-3-methylphenyl)cyclohexyl)methyl)-4-(3-methylbutanamido) cyclohexanecarboxamide]: the 50% effective concentration (EC50) was ≤ 250 nM.
For `COc1ccc([C@H]2CC[C@H](CN(c3cccc(-c4cnc(C5CC5)s4)c3)C(=O)[C@H]3CC[C@H](OC(=O)NCCO)CC3)CC2)cc1C` [Compound 4.01, trans-4-((3-(2-Cyclopropylthiazol-5-yl)phenyl)((trans-4-(4-methoxy-3-methylphenyl)cyclohexyl)methyl)carbamoyl)cyclohexyl (2-hydroxyethyl)carbamate], the EC50 is ≤ 250 nM.
Consider `COc1ccc([C@H]2CC[C@H](CN(c3cc(-c4coc(C(C)C)n4)ccn3)C(=O)[C@H]3CC[C@H](OC(=O)NCC(C)(C)O)CC3)CC2)nc1C` [Compound 6.91, trans-4-((4-(2-Isopropyloxazol-4-yl)pyridin-2-yl)((trans-4-(5-methoxy-6-methylpyridin-2-yl)cyclohexyl)methyl)carbamoyl)cyclohexyl (2-hydroxy-2-methylpropyl)carbamate], for which the EC50 is ≤ 250 nM.
On to `COc1ccc([C@H]2CC[C@H](CN(c3cccc(-c4cnn(C(C)C)c4)c3)C(=O)[C@H]3CC[C@H](CCC(=O)O)CC3)CC2)cc1C` [Compound 20.16, 3-(trans-4-((3-(1-Isopropyl-1H-pyrazol-4-yl)phenyl)((trans-4-(4-methoxy-3-methylphenyl)cyclohexyl)methyl)carbamoyl)cyclohexyl)propanoic acid], for which the 50% effective concentration (EC50) was ≤ 250 nM.
The figure for `COc1ccc(C23CCC(CN(c4cc(-c5cnc(C6CC6)s5)ccn4)C(=O)[C@H]4CC[C@H](C(=O)O)CC4)(CC2)CC3)cc1C` [Compound 17.07, trans-4-((4-(2-Cyclopropylthiazol-5-yl)pyridin-2-yl)((4-(4-methoxy-3-methylphenyl)bicyclo[2.2.2]octan-1-yl)methyl)carbamoyl) cyclohexanecarboxylic acid] is ≤ 250 nM; for `COc1ccc([C@H]2CC[C@H](CN(c3cccc(-c4cnn(C5CC5)c4)c3)C(=O)[C@H]3CC[C@H](OC(=O)N4CC([S+](C)[O-])C4)CC3)CC2)cc1C` (stereo partly drawn) [Compound 8.01, trans-4-((3-(1-Cyclopropyl-1H-pyrazol-4-yl)phenyl)((trans-4-(4-methoxy-3-methylphenyl)cyclohexyl)methyl)carbamoyl)cyclohexyl 3-(methylsulfinyl)azetidine-1-carboxylate] it is ≤ 250 nM.
The figure for `CCN1CCN(C(=O)O[C@H]2CC[C@H](C(=O)N(C[C@H]3CC[C@H](c4ccc(OC)c(C)n4)CC3)c3cc(-c4coc(C5CC5)n4)ccn3)CC2)CC1` [Compound 6.81, trans-4-((4-(2-Cyclopropyloxazol-4-yl)pyridine-2-yl)((trans-4-(5-methoxy-6-methylpyridin-2-yl)cyclohexyl)methyl)carbamoyl)cyclohexyl 4-ethylpiperazine-1-carboxylate] is ≤ 250 nM; for `COc1ccc([C@H]2CC[C@H](CN(c3cccc(-c4cnn(C5CC5)c4)c3)C(=O)[C@H]3CC[C@H](NC(=O)CNS(C)(=O)=O)CC3)CC2)cc1C` [Compound 31.03, trans-N-(3-(1-Cyclopropyl-1H-pyrazol-4-yl)phenyl)-N-((trans-4-(4-methoxy-3-methylphenyl)cyclohexyl)methyl)-4-(2-(methylsulfonamido)acetamido) cyclohexane carboxamide] it is ≥ 1000 nM; for `CNC(=O)O[C@H]1CC[C@H](C(=O)N(C[C@H]2CC[C@H](c3ccc4c(c3)c(F)nn4C)CC2)c2cccc(-c3cnn(C4CC4)c3)c2)CC1` [Compound 1.09, trans-4-((3-(1-Cyclopropyl-1H-pyrazol-4-yl)phenyl)((trans-4-(3-fluoro-1-methyl-1H-indazol-5-yl)cyclohexyl)methyl)carbamoyl)cyclohexyl methylcarbamate] it is ≤ 250 nM.
Consider `CNC(=O)O[C@H]1CC[C@H](C(=O)N(C[C@H]2CC[C@H](c3ccc(OC)c(C#N)c3)CC2)c2cc(-c3cnn(C(C)C)c3)ccn2)CC1` [Compound 5.18, trans-4-(((trans-4-(3-Cyano-4-methoxyphenyl)cyclohexyl)methyl)(4-(1-isopropyl-1H-pyrazol-4-yl)pyridin-2-yl)carbamoyl)cyclohexyl methylcarbamate], for which the EC50 is ≤ 250 nM.
The figure for `COc1ccc([C@H]2CC[C@H](CN(c3cc(-c4coc(C5CC5)n4)ccn3)C(=O)[C@H]3CC[C@H](C(=O)OC)CC3)CC2)nc1C` [Compound 18.23, trans-Methyl 4-((4-(2-cyclopropyloxazol-4-yl)pyridin-2-yl) ((trans-4-(5-methoxy-6-methylpyridin-2-yl)cyclohexyl)methyl)carbamoyl) cyclohexanecarboxylate] is ≤ 250 nM; for `COc1ccc([C@H]2CC[C@H](CN(c3cccc(-c4cnc(C5CC5)s4)c3)C(=O)[C@H]3CC[C@H](C(=O)O)CC3)CC2)nc1C` [Compound 17.08, trans-4-((3-(2-Cyclopropylthiazol-5-yl)phenyl)((trans-4-(5-methoxy-6-methylpyridin-2-yl)cyclohexyl)methyl)carbamoyl) cyclohexanecarboxylic acid] it is ≤ 250 nM; for `COc1ccc([C@H]2CC[C@H](CN(c3cc(-c4cnn(C(C)C)c4)ccn3)C(=O)[C@H]3CC[C@H](OC(=O)NC(C)C)CC3)CC2)nc1C` [Compound 7.44, trans-4-((4-(1-Isopropyl-1H-pyrazol-4-yl)pyridin-2-yl)((trans-4-(5-methoxy-6-methylpyridin-2-yl)cyclohexyl)methyl)carbamoyl)cyclohexyl isopropylcarbamate] it is ≤ 250 nM.
The figure for `COc1ccc([C@H]2CC[C@H](CN(c3cc(-c4coc(C(C)C)n4)ccn3)C(=O)[C@H]3CC[C@H](OC(=O)N4CC(O)C4)CC3)CC2)nc1C` [Compound 7.71, trans-4-((4-(2-Isopropyloxazol-4-yl)pyridine-2-yl)((trans-4-(5-methoxy-6-methylpyridin-2-yl)cyclohexyl)methyl)carbamoyl)cyclohexyl 3-hydroxyazetidine-1-carboxylate] is ≤ 250 nM.
The figure for `COc1ccc([C@H]2CC[C@H](CN(c3cc(-c4coc(C(C)C)n4)ccn3)C(=O)[C@H]3CC[C@H](OC(=O)N4CCOCC4)CC3)CC2)nc1C` [Compound 6, trans-4-((4-(2-Isopropyloxazol-4-yl)pyridine-2-yl)((trans-4-(5-methoxy-6-methylpyridin-2-yl)cyclohexyl)methyl)carbamoyl)cyclohexyl morpholine-4-carboxylate] is ≤ 250 nM.
Consider `CCC(C)(O)CNC(=O)O[C@H]1CC[C@H](C(=O)N(C[C@H]2CC[C@H](c3ccc(OC)c(C)n3)CC2)c2cc(-c3coc(C4CC4)n3)ccn2)CC1` (stereo partly drawn) [Compound 6.69, trans-4-((4-(2-Cyclopropyloxazol-4-yl)pyridin-2-yl)((trans-4-(5-methoxy-6-methylpyridin-2-yl)cyclohexyl)methyl)carbamoyl)cyclohexyl (2-hydroxy-2-methylbutyl)carbamate], for which the concentration giving a half-maximal response (EC50) was ≤ 250 nM.

Source of the values: patent US20220089575A1, “FARNESOID X RECEPTOR AGONISTS AND USES THEREOF” (Metacrine, Inc., priority 2017, published 2022).
